From patent US12486216B2, “Processes for preparing nitrosylated propanediols, compositions comprising the same, and medical uses thereof” (ATTGENO AB, priority 2018, dated 2025) come the findings set out here.

The test system of one data set is anesthetised pigs. Kind of data set: Pharmacological investigation of 1,2-PDNO—R, 1,2-PDNO—S and 1,3-PDNO in anesthetised pigs. The class given is in vivo, pig. As to conditions: pH approximately 8. From the text: Prior to experimentation, ethical approval was received from Linköping's regional animal ethics committee (Linköping, Sweden; approval number 953). In brief, 2 male and female pigs (a crossbreed between Swedish country breed, Hampshire and Yorkshire; 3-4 months old; 24-26 kg) were premedicated with azaperone at the farm and transported to the laboratory. At the laboratory, anaesthesia was induced with a mixture of tiletamine, zolazepam and azaperone (intramuscular injection). Propofol was given in a peripheral venous catheter in an ear vein, if needed. Bolus doses of atropine and cefuroxime were administered intravenously. The animals were endotracheally intubated and mechanically ventilated (5 cm H2O in positive end-expiratory pressure, minute ventilation was adjusted to normoventilation). General anaesthesia was maintained with propofol and fentanyl via continuous intravenous infusions, and additional bolus doses were given if needed. Ringer's acetate and glucose solutions were continuously administered intravenously to substitute for fluid loss. Heparin was given as an intravenous bolus dose after the surgical instrumentation. After the experiments the animals were killed in general anaesthesia with a propofol injection followed by a rapid intravenous injection of potassium chloride (40 mmol), and asystolia was confirmed.
The animals were instrumented with an arterial catheter in the right carotid artery for measurement of systemic arterial blood pressure and heart rate. A sheath was placed in the right external jugular vein for introduction of a pulmonary-arterial catheter. This catheter was used for continuous measurement of pulmonary arterial blood pressure, semi-continuous cardiac output and intermittent pulmonary wedge pressure. […] Respiratory gases, pressures and volumes were measured at the endotracheal tube. Respiratory and hemodynamic variables were measured by a Datex AS/3 (Helsinki, Finland) and data were collected by a computerised system (MP100 or MP150/Acknowledge 3.9.1, BIOPAC systems, Goleta, CA, USA). […]

Data set [1] is described as follows: Stability of non-aqueous mixtures of the nitrites in 1,2-propanediol (GC). In kind it is physicochemical. The method, then: Three different concentrations of 1-(nitrosooxy)-propan-2-ol and 2-(nitrosooxy)-propan-1-ol in 1,2-propanediol were prepared and stored in both a refrigerator (5° C.) and freezer (−20° C.). Aliquots of each solution were taken periodically and analysed by GC to determine the concentration of 1-(nitrosooxy)-propan-2-ol and 2-(nitrosooxy)-propan-1-ol.
The results of the GC analysis are shown in the table below (column: Rxi-5Sil MS, 20 m×0.18 mm, […]; carrier: He; Inlet: 250° C., split ratio 100:1; constant flow: 1.0 mL/min; oven temperature profile: 40° C. (3 min), 10° C./min, 80° C. (0 min), 30° C./min, 250° C. (3 min); FID: 300° C., H2 flow 30 mL/min, air flow 400 mL/min, make-up flow (N2) 25 mL/min; internal standard: 1,1,1,3,5,5,5-heptamethyl trisiloxane): […]

Data set [2] deals with anesthetised and mechanically ventilated pigs with U46619-induced pulmonary hypertension. Description: In vivo study in pigs with U46619-induced pulmonary hypertension, PDNO infusion vs inhaled NO. The settings on record: for mean pulmonary arterial pressure / pulmonary vascular resistance: median (interquartile range).
The mark [3] stands for this setting: 10-15 min iv infusion (1,2-PDNO—R and —S 43, 1,3-PDNO 30 nmol kg^−1 min^−1) into sodium bicarbonate carrier.
The mark [4] stands for this setting: Freezer (−20° C.), 10 days, Low conc.
The mark [5] stands for this setting: Freezer (−20° C.), 10 days, Medium conc.
Where [6] appears, read: Freezer (−20° C.), 14 days, High conc.
Setting [7] is: Freezer (−20° C.), 27 days, Low conc.
Where [8] appears, read: Freezer (−20° C.), 27 days, Medium conc.
[9] abbreviates: Freezer (−20° C.), 28 days, High conc.
[10] abbreviates: Freezer (−20° C.), 56 days, High conc.
Setting [11] is: Freezer (−20° C.), 64 days, Low conc.
Setting [12] is: Freezer (−20° C.), 64 days, Medium conc.
Where [13] appears, read: Freezer (−20° C.), 84 days, High conc.
Setting [14] is: Freezer (−20° C.), 84 days, Low conc.
Where [15] appears, read: Freezer (−20° C.), 84 days, Medium conc.
Setting [16] is: Freezer (−20° C.), Start, High conc.
[17] abbreviates: Freezer (−20° C.), Start, Low conc.
Where [18] appears, read: Freezer (−20° C.), Start, Medium conc.
Setting [19] is: Refrigerator (5° C.), 10 days, Low conc.
[20] abbreviates: Refrigerator (5° C.), 10 days, Medium conc.
The mark [21] stands for this setting: Refrigerator (5° C.), 14 days, High conc.
Setting [22] is: Refrigerator (5° C.), 27 days, Low conc.
[23] abbreviates: Refrigerator (5° C.), 27 days, Medium conc.
Where [24] appears, read: Refrigerator (5° C.), 28 days, High conc.
The mark [25] stands for this setting: Refrigerator (5° C.), 56 days, High conc.
Where [26] appears, read: Refrigerator (5° C.), 64 days, Low conc.
Where [27] appears, read: Refrigerator (5° C.), 64 days, Medium conc.
[28] abbreviates: Refrigerator (5° C.), 84 days, High conc.
The mark [29] stands for this setting: Refrigerator (5° C.), 84 days, Low conc.
Setting [30] is: Refrigerator (5° C.), 84 days, Medium conc.
Where [31] appears, read: Refrigerator (5° C.), Start, High conc.
[32] abbreviates: Refrigerator (5° C.), Start, Low conc.
Where [33] appears, read: Refrigerator (5° C.), Start, Medium conc.
Where [34] appears, read: U46619 infusion alone, data not shown.
The mark [35] stands for this setting: PDNO iv 15-60 nmol kg^−1 min^−1 or inhaled NO 5-40 ppm, during U46619.
[36] abbreviates: PDNO or inhaled NO during U46619, data not shown.

Consider `O=NOCCCO` [1,3-PDNO, 1-(nitrosooxy)propan-3-ol], for which, in the data set on anesthetised pigs (setting [3]), the “Effect on mean pulmonary arterial pressure” value is “decreased” and the “Effect on mean systemic arterial pressure” value was “decreased”. The Vasodilation result with anesthetised pigs (10-15 min iv infusion into sodium bicarbonate carrier) is “caused systemic and pulmonary vasodilation”.
As for `CC(O)CON=O` (stereo not shown) [1-Nitrite, 1-(nitrosooxy)-propan-2-ol], the Concentration was found to be 0.08 % w/w in data set [1] (setting [4]); 0.81 % w/w in data set [1] (setting [5]); 3.76 % w/w in data set [1] (setting [6]); 0.07 % w/w in data set [1] (setting [7]); 0.74 % w/w in data set [1] (setting [8]); 3.72 % w/w in data set [1] (setting [9]). Besides, the Concentration in data set [1] (setting [10]) is recorded as 3.55 % w/w; in data set [1] (setting [11]), 0.07 % w/w; in data set [1] (setting [12]) it was 0.74 % w/w; in data set [1] (setting [13]), 3.50 % w/w; in data set [1] (setting [14]), 0.08 % w/w; in data set [1] (setting [15]), 0.78 % w/w. The Concentration amounted to 3.75 % w/w in data set [1] (setting [16]); 0.08 % w/w in data set [1] (setting [17]); 0.81 % w/w in data set [1] (setting [18]); 0.08 % w/w in data set [1] (setting [19]); 0.86 % w/w in data set [1] (setting [20]); 3.72 % w/w in data set [1] (setting [21]). Further, the Concentration in data set [1] (setting [22]) was determined as 0.09 % w/w; in data set [1] (setting [23]) it was 0.81 % w/w; in data set [1] (setting [24]), 3.67 % w/w; in data set [1] (setting [25]), 3.47 % w/w; in data set [1] (setting [26]) it was 0.07 % w/w; in data set [1] (setting [27]) it was 0.73 % w/w. In addition, the Concentration in data set [1] (setting [28]) is on record as 3.33 % w/w; in data set [1] (setting [29]), 0.07 % w/w; in data set [1] (setting [30]), 0.77 % w/w; in data set [1] (setting [31]), 3.75 % w/w; in data set [1] (setting [32]), 0.08 % w/w; in data set [1] (setting [33]), 0.81 % w/w.
`CC(CO)ON=O` (stereo not shown) [2-Nitrite, 2-(nitrosooxy)-propan-1-ol]: the Concentration in data set [1] (setting [4]) is on record as 0.06 % w/w; in data set [1] (setting [5]) it was 0.63 % w/w; in data set [1] (setting [6]) it was 2.89 % w/w; in data set [1] (setting [7]) it was 0.06 % w/w; in data set [1] (setting [8]), 0.57 % w/w; in data set [1] (setting [9]) it was 2.93 % w/w. The Concentration in data set [1] (setting [10]) is on record as 2.74 % w/w; in data set [1] (setting [11]), 0.06 % w/w; in data set [1] (setting [12]) it was 0.58 % w/w; in data set [1] (setting [13]), 2.71 % w/w; in data set [1] (setting [14]) it was 0.06 % w/w; in data set [1] (setting [15]), 0.62 % w/w. Moreover, the Concentration in data set [1] (setting [16]) stood at 2.94 % w/w; in data set [1] (setting [17]), 0.06 % w/w; in data set [1] (setting [18]), 0.61 % w/w; in data set [1] (setting [19]), 0.06 % w/w; in data set [1] (setting [20]), 0.67 % w/w; in data set [1] (setting [21]), 2.91 % w/w. Besides, the Concentration in data set [1] (setting [22]) came to 0.07 % w/w; in data set [1] (setting [23]) it was 0.63 % w/w; in data set [1] (setting [24]), 2.90 % w/w; in data set [1] (setting [25]), 2.69 % w/w; in data set [1] (setting [26]), 0.06 % w/w; in data set [1] (setting [27]), 0.57 % w/w. Also, the Concentration in data set [1] (setting [28]) was determined as 2.59 % w/w; in data set [1] (setting [29]), 0.06 % w/w; in data set [1] (setting [30]), 0.60 % w/w; in data set [1] (setting [31]), 2.94 % w/w; in data set [1] (setting [32]), 0.06 % w/w; in data set [1] (setting [33]) it was 0.61 % w/w.
For the compound `CCCCCC(O)C=CC1C2CC(CO2)C1CC=CCCCC(=O)O` (stereo not drawn) [U46619, 9,11-dideoxy-9α, 11α-methanoepoxy PGF2α], the “Effect on arterial partial pressure of oxygen” value in data set [2] (setting [34]) is “slightly decreased”. Besides, the “Effect on cardiac output” value in data set [2] (setting [34]) is reported as “slightly decreased”. For the same compound, the “mean pulmonary arterial pressure” value was 43 (37-48) mmHg in data set [2] (during iv U46619 60-150 ng kg^−1 min^−1, before NO inhalation) and 43 (41-46) mmHg in data set [2] (during iv U46619 60-150 ng kg^−1 min^−1, before PDNO infusion). For the same compound, the pulmonary vascular resistance is given as 8.3 (6.7-11.7) mmHg min l^−1 in data set [2] (during iv U46619, before NO inhalation) and 9.8 (7.7-12.5) mmHg min l^−1 in data set [2] (during iv U46619, before PDNO infusion).
Turning to nitric oxide [inhaled NO], in data set [2] (PDNO iv 15-60 nmol kg^−1 min^−1 in sodium bicarbonate carrier or inhaled NO 5-40 ppm, during U46619), the “Effect on pulmonary arterial pressure” value was “significantly reduced”. In addition, the “Effect on methemoglobin concentration” value in data set [2] (PDNO iv 15-60 nmol kg^−1 min^−1 or inhaled NO 5-40 ppm, arterial blood) is on record as “No drug significantly affected”. Besides, in data set [2] (setting [35]), the “Effect on mean arterial pressure” value is given as “No drug significantly affected”, the “Effect on pulmonary vascular resistance” value is recorded as “significantly reduced” and the “Effect on systemic vascular resistance” value is “No drug significantly affected”. For the same compound, in data set [2] (setting [36]), the “Effect on arterial partial pressure of oxygen” value was “increased this variable towards normal” and the “Effect on cardiac output” value is on record as “no drug significantly changed”. In addition, in data set [2] (at the highest doses, data not shown), the “Pulmonary-to-systemic vascular resistances ratio compared to the PDNO group” value is given as “slightly lower”. For the same compound, the “Effect on pulmonary-to-systemic vascular resistances ratio” value in data set [2] (during U46619, data not shown) is listed as “significantly decreased”. Also, the “Trend in methemoglobin concentration” value in data set [2] (inhaled NO group, associated to dose of delivered NO) is on record as “tendency for an increase”.
